The results in this text go back to patent publication US4438142A, “Pharmaceutical combination” (Burroughs Wellcome Co., priority 1982, dated 1984).

One may read the ED50 as the dose at which the effect has come halfway, by size or by number of responders.

The assay relates to rat. The experiment in a line: Analgesic Activity: Rat Hot Plate Assay. The format is in vivo. The following applies: for ED50: po, 1 h, p.o. in rat, single substance, 60 min prior to testing, plate 45±1.0° C., ± standard error. The source says:
The rat hot plate assay incorporated two modifications of the mouse hot plate assay originally described by Eddy et al., J. Pharmacol. Exp. Ther. 98, 121-137 (1950). The first modification was enlargement of the diameter of the cylindrical (water filled) copper plate to 25.0 cm to accommodate rats instead of mice. The second modification was the use of a temperature controller to regulate a 250 watt infrared heat lamp which was activated via a thermistor probe attached to the under surface of the copper plate, the temperature of which was thus maintained at 45±1.0° C. (N=28 measurements of the plate temperature under experimental conditions). The time required for a rat placed on the hot plate to respond by lifting, shaking or licking either of its hind or forelimbs was recorded in tenths of a second. Only animals responding in pretest within 6-13 seconds were used in the studies. The combination, comprising an intimate mixture of codeine phosphate with compound I, was suspended in 0.5% sodium carboxymethylcellulose and administered orally, by gavage, in a volume of 1.00 ml/100 g.b. wt. 60 min prior to testing. […] The reaction time of 18.3 seconds represented the sum of the mean pretest times of 40 untreated rats plus the time of 3 standard deviations of the mean. ED50 's and their standard errors were estimated from a graph of the dose-response curves using the method of Miller and Tainter (Proc. Soc. Exp. Biol. Med. 57, 261-262 (1944). Following this procedure the analgesic activities of codeine, compound I and the combination (codeine+compound I) were compared (Table I).
(In hot-plate and tail-flick tests a longer latency is read as antinociception.)

Take `O=C1CCCN1c1ccc2c(c1)OCO2` [Compound I, 1-(1,3-benzodioxol)-5-yl-2-pyrrolidinone]: the ED50 stood at 86 ± 16.5 mg/kg. Moreover, the “potentiation of the analgesic activity of codeine” value (upon oral administration, compound I with codeine, species not stated) was “four to seven”. Take `COc1ccc2c3c1O[C@H]1[C@@H](O)C=C[C@H]4[C@@H](C2)N(C)CC[C@@]341` [Codeine Phosphate, reference compound]: the ED50 stood at 57 ± 35.3 mg/kg.
